In assay [1] the target is T1, Large conductance calcium-activated potassium channel (Bos taurus) (UniProt Q28204+Q28067). Kind of assay: Inhibition of large conductance calcium-activated potassium channel in bovine smooth muscle cells at 30 uM. In kind it is functional, cell-based.
Assay [2] has as its target T1, Large conductance calcium-activated potassium channel (Bos taurus). In words: Inhibition of large conductance calcium-activated potassium channel in bovine smooth muscle cells at 10 uM. In kind it is functional, cell-based.

SMILES strings stand for the structures.

As for `Clc1ccc([C@@]2(Cn3ccnc3)OC[C@H](COc3ccccc3)O2)c(Cl)c1`, the inhibition (usually the percentage by which the read-out fell short of the control) in assay [1] came to 73%.

As to `Clc1ccc([C@@]2(Cn3ccnc3)OC[C@H](COc3ccc(Br)cc3)O2)c(Cl)c1`, the inhibition in assay [1] was 95%.

Turning to `Cc1ccc(S(=O)(=O)OC[C@H]2CO[C@](Cn3ccnc3)(c3ccc(Cl)cc3Cl)O2)cc1`, the inhibition in assay [1] turned out to be 2%.

Turning to `Clc1ccc([C@@]2(Cn3ccnc3)OC[C@H](COc3ccc(N4CCCCC4)cc3)O2)c(Cl)c1`, the inhibition in assay [2] was determined as 80%.

Turning to `O=C(OC[C@H]1CO[C@](Cn2ccnc2)(c2ccc(Cl)cc2Cl)O1)c1ccccc1`, the inhibition in assay [1] was 40%.

Source of the values: ChEMBL document CHEMBL1149459, “Partial structures of ketoconazole as modulators of the large conductance calcium-activated potassium channel (BK(Ca))” (Bioorg Med Chem Lett, 2006).
